28 compounds from ChEMBL document CHEMBL1152261, “2-Aminobenzimidazoles as potent ITK antagonists: trans-stilbene-like moieties targeting the kinase specificity pocket” (Bioorg Med Chem Lett, 2008) can be followed below.

pIC50: −log10 of the molar value.

One assay addresses Insulin receptor (Homo sapiens, UniProt P06213). In words: Inhibition of IRK by DELPHIA.
A further assay deals with T-cell. In words: Inhibition of anti-CD3/anti-CD28-stimulated IL2 production in human CD4+ T cells.
For assay [1], the target named is T1, Tyrosine-protein kinase ITK/TSK (Homo sapiens, UniProt Q08881).
T1 sequence (Q08881 whole entry): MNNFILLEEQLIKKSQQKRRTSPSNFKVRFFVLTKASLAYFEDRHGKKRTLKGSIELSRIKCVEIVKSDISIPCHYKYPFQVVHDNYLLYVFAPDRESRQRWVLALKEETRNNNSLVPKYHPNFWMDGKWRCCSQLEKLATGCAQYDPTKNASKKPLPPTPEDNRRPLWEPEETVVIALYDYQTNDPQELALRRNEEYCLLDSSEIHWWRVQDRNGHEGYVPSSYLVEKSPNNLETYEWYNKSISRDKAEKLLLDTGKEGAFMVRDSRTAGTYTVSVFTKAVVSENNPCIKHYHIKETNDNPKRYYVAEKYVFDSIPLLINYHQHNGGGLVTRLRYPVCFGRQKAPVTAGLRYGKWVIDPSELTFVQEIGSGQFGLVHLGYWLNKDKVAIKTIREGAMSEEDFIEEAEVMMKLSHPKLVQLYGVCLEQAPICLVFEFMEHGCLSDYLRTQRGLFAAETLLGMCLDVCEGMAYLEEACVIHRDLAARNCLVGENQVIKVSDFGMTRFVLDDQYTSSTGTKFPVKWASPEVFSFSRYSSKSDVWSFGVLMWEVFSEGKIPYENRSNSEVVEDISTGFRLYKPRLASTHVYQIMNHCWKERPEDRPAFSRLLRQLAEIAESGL
In words: Inhibition of ITK by DELPHIA.

Assay [2] concerns the target T1, Tyrosine-protein kinase ITK/TSK. In words: Antagonist activity at ITK expressed in chicken DT40 B cells assessed as inhibition of calcium flux. The format is functional, cell-based. A general note: Calcium assays in cells follow changes in intracellular calcium, usually with a dye or a luminescent sensor.
Assay [3] addresses Tyrosine-protein kinase BTK (Homo sapiens, UniProt Q06187). In words: Inhibition of BTK.
Assay [4] has as its target T2, Tyrosine-protein kinase TXK (Homo sapiens, UniProt P42681).
T2 sequence (P42681 whole entry): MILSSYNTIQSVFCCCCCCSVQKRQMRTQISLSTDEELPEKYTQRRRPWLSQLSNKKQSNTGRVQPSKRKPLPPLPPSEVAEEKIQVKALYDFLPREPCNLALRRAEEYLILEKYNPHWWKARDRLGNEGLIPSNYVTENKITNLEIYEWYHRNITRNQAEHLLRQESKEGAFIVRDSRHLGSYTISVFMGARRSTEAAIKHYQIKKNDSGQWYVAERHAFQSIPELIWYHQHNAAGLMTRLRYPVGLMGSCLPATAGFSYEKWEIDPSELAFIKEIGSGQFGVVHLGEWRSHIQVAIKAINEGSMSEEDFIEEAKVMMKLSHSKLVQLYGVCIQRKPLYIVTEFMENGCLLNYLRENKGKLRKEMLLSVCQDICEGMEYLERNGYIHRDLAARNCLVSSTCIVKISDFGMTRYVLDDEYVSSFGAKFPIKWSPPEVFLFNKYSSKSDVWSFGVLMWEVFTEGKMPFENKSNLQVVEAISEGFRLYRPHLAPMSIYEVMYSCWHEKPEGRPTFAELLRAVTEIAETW
In words: Inhibition of TXK.

Chain of Insulin receptor (P06213 28-758 limits assumed): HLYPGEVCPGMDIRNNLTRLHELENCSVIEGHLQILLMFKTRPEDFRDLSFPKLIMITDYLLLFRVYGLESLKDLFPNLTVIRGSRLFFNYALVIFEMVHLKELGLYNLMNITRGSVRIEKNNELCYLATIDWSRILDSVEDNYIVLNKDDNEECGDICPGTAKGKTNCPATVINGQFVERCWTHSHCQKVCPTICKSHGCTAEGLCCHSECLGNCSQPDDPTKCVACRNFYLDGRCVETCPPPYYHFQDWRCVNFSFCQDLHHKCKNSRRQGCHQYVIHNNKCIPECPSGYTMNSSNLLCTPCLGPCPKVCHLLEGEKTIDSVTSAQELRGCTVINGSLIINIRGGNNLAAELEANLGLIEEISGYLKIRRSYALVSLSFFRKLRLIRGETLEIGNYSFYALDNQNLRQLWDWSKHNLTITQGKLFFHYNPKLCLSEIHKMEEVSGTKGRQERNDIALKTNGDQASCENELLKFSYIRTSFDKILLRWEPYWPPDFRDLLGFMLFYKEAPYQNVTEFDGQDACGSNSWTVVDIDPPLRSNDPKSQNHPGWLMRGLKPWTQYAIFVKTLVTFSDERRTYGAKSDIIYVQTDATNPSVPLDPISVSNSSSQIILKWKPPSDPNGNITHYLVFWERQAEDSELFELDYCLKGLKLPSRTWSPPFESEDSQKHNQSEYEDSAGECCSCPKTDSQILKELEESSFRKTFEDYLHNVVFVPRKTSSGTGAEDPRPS
Chain of Insulin receptor (P06213 763-1382 limits assumed): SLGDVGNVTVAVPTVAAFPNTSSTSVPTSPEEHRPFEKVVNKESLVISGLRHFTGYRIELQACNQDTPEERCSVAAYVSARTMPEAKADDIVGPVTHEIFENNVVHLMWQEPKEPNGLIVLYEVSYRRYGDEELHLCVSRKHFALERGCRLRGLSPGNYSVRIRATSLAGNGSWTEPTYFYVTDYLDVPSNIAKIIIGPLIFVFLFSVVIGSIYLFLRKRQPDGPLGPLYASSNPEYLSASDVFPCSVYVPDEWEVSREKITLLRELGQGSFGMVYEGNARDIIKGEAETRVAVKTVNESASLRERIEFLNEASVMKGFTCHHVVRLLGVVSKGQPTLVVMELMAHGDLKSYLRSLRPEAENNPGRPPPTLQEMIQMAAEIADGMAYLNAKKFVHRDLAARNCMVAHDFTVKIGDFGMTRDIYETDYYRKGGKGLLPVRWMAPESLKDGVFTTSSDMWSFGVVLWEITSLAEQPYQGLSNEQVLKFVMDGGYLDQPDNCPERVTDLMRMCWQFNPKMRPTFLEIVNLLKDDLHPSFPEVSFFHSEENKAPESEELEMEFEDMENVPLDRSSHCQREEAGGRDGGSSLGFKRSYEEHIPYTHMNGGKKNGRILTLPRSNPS
Chain of Tyrosine-protein kinase BTK (Q06187 whole entry): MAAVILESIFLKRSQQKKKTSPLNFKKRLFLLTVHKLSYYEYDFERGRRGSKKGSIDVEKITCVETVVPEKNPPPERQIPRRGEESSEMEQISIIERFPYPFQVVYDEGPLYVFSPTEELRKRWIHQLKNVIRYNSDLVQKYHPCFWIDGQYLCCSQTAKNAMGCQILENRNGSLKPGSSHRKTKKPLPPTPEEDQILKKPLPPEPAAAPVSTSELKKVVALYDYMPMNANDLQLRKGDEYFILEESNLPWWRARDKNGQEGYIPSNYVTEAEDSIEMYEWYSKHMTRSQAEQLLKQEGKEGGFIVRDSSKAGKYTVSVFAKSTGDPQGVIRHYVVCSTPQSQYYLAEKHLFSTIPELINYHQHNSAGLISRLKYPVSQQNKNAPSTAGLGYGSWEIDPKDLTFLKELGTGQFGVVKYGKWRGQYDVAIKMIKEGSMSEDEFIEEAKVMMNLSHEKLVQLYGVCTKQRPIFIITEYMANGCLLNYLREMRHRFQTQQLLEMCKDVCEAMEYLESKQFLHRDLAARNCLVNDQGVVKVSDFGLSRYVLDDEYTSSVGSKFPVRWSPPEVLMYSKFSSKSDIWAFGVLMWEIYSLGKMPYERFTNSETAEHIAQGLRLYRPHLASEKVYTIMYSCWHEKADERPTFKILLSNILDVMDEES

A word on the pIC50: it is −log10 of the IC50, conventionally taken in molar units. As for `CN(C(=O)c1ccccc1)c1ccc2c(c1)[nH]/c(=N\C(=O)c1ccc(/C=C/c3ccc(O)cc3)s1)n2CCC(N)=O`, on Insulin receptor, the negative logarithm of the IC50 (pIC50) was 5.66.

`CN(C(=O)c1ccccc1)c1ccc2c(c1)nc(NC(=O)c1ccc(/C=C/c3cccc(C(F)(F)F)c3)s1)n2CCC(N)=O` had a negative-log IC50 (pIC50) against Insulin receptor of less than 5.30. Still for that read-out and setting: as for `COc1ccc(/C=C/c2ccc(C(=O)/N=c3\[nH]c4cc(N(C)C(=O)c5ccccc5)ccc4n3CCC(N)=O)s2)cc1`, the figure is less than 5.30; as for `CN(C(=O)c1ccccc1)c1ccc2c(c1)[nH]/c(=N\C(=O)c1ccc(/C=C/c3ccccc3C(F)(F)F)s1)n2CCC(N)=O`, less than 5.30.

In turn, `COc1cccc(/C=C/c2ccc(C(=O)Nc3nc4cc(N(C)C(=O)c5ccccc5)ccc4n3CCC(N)=O)s2)c1` had a negative logarithm of the IC50 (pIC50) against Insulin receptor of less than 5.30. For `CN(C(=O)c1ccccc1)c1ccc2c(c1)nc(NC(=O)c1cccs1)n2CCC(N)=O`, the pIC50 with T-cell is less than 5.30. On to `CN(C(=O)c1ccccc1)c1ccc2c(c1)[nH]/c(=N\C(=O)c1ccc(/C=C/c3cccnc3)s1)n2CCC(N)=O`, for which, at Insulin receptor, the pIC50 is less than 5.30.

As to `CN(C(=O)c1ccccc1)c1ccc2c(c1)[nH]/c(=N\C(=O)c1ccc(/C=C/c3cn[nH]c3)s1)n2CCC(N)=O`, the negative-log IC50 (pIC50) with T-cell is 5.52. Turning to `C=C(C)c1ccc(C(=O)/N=c2\[nH]c3cc(N(C)C(=O)c4ccccc4)ccc3n2CCC(N)=O)s1`, the pIC50 on Insulin receptor was less than 5.30. Still for that read-out and setting: next, `COC(=O)/C=C(\C)c1ccc(C(=O)/N=c2\[nH]c3cc(N(C)C(=O)c4ccccc4)ccc3n2CCC(N)=O)s1`: 5.44. For `CN(C(=O)c1ccccc1)c1ccc2c(c1)[nH]/c(=N\C(=O)c1ccc(/C=C/n3ccnc3)s1)n2CCC(N)=O`, the values for the pIC50 (in assay [1]; in assay [2]; on Insulin receptor) were 7.92, 5.66 and less than 5.30, respectively. With `C=Cc1ccc(C(=O)Nc2nc3cc(N(C)C(=O)c4ccccc4)ccc3n2CCC(N)=O)s1`, the pIC50 on Insulin receptor was 6.32. Same read-out and setting: as for `COC(=O)/C=C/c1ccc(C(=O)/N=c2\[nH]c3cc(N(C)C(=O)c4ccccc4)ccc3n2CCC(N)=O)s1`, the figure is less than 5.30; as for `CN(C(=O)c1ccccc1)c1ccc2c(c1)[nH]/c(=N\C(=O)c1ccc(/C=C/c3ccncc3)s1)n2CCC(N)=O`, less than 5.30.

Consider `CN(C(=O)c1ccccc1)c1ccc2c(c1)[nH]/c(=N\C(=O)c1ccc(/C=C/c3cnccn3)s1)n2CCC(N)=O`, for which the pIC50 is 8.10 in assay [1], 6.09 in assay [2] and less than 5.30 against Insulin receptor.

In turn, `CN(C(=O)c1ccccc1)c1ccc2c(c1)[nH]/c(=N\C(=O)c1ccc(/C=C/c3cccc(N)c3)s1)n2CCC(N)=O` had a pIC50 against Insulin receptor of 5.31. On the same count and under the same terms, as for `CN(C(=O)c1ccccc1)c1ccc2c(c1)nc(NC(=O)c1ccc(/C=C/c3ccc(N)cc3)s1)n2CCC(N)=O`, the figure is 5.48.

For the compound `CN(C(=O)c1ccccc1)c1ccc2c(c1)[nH]/c(=N\C(=O)c1ccc(/C=C/c3ncc(N)cn3)s1)n2CCC(N)=O`, the negative-log IC50 (pIC50) was 8.30 in assay [1]; 6.39 in assay [2]; 8.30 in assay [3]; 5.80 in the assay with T-cell; 5.82 on Insulin receptor; 6.15 in assay [4]. `CN(C(=O)c1ccccc1)c1ccc2c(c1)[nH]/c(=N\C(=O)c1ccc(/C=C/c3cccc([N+](=O)[O-])c3)s1)n2CCC(N)=O` showed a pIC50 against Insulin receptor of 5.37. For `COc1ccccc1/C=C/c1ccc(C(=O)/N=c2\[nH]c3cc(N(C)C(=O)c4ccccc4)ccc3n2CCC(N)=O)s1`, the pIC50 on Insulin receptor was less than 5.30.

Take `CN(C(=O)c1ccccc1)c1ccc2c(c1)[nH]/c(=N\C(=O)c1ccc(/C=C/c3cccc(N)n3)s1)n2CCC(N)=O`: the negative-log IC50 (pIC50) is 8.15 in assay [1], 5.70 in assay [2] and 5.42 at Insulin receptor. The compound `C/C(=C\c1ccncc1)c1ccc(C(=O)/N=c2\[nH]c3cc(N(C)C(=O)c4ccccc4)ccc3n2CCC(N)=O)s1` gave a pIC50 against Insulin receptor of less than 5.30. Same read-out and setting: as for `C/C(=C\c1cccnc1)c1ccc(C(=O)/N=c2\[nH]c3cc(N(C)C(=O)c4ccccc4)ccc3n2CCC(N)=O)s1`, the figure is less than 5.30; as for `CN(C(=O)c1ccccc1)c1ccc2c(c1)[nH]/c(=N\C(=O)c1ccc(/C=C/c3ccccc3N)s1)n2CCC(N)=O`, 5.71; as for `C/C(=C\c1ccccc1)c1ccc(C(=O)Nc2nc3cc(N(C)C(=O)c4ccccc4)ccc3n2CCC(N)=O)s1`, less than 5.30. Same read-out and setting: next, `CN(C(=O)c1ccccc1)c1ccc2c(c1)[nH]/c(=N\C(=O)c1ccc(/C=C/c3ccc(C(F)(F)F)cc3)s1)n2CCC(N)=O`: less than 5.30; `CN(C(=O)c1ccccc1)c1ccc2c(c1)[nH]/c(=N\C(=O)c1ccc(/C=C/c3ccccc3)s1)n2CCC(N)=O`: 6.01; `C/C(=C\C#N)c1ccc(C(=O)/N=c2\[nH]c3cc(N(C)C(=O)c4ccccc4)ccc3n2CCC(N)=O)s1`: 5.35.
